Results taken from patent US12533341B2, “Small molecule inhibitors of voltage-gated sodium channel 1.7 and methods of using same” (Duke University, priority 2019, dated 2026).
“Also recorded” adds a separate entry of the source. Where two headings read alike, the source gives them in different places.

Tests used:
[1] = tested on: mouse dorsal root ganglion (DRG) neurons; assay: Patch-clamp of transient sodium currents in mouse DRG neurons (naive and paclitaxel-pretreated); assay type: cell-based; conditions: for inhibition at 10 µM: Mus musculus, DRG neuron
Protocol: Mouse DRGs were removed aseptically from mice (4-6 weeks) and incubated with collagenase (1.25 mg/mL, Roche)/dispase-II (2.4 units/mL, Roche) in HBSS buffer at 37° C. for 90 min. Cells were mechanically dissociated with a flame polished Pasteur pipette in the presence of 0.05% DNAse I (Sigma). DRG cells were plated on 0.5 mg/mL poly-D-lysine-coated glass cover slips and grown in a neurobasal defined medium (with 10% FBS, 2% B27 supplement, Invitrogen) with 5 μM AraC and 5% carbon dioxide at 36.5° C. DRG neurons were grown for 24 hours before use. Patch clamp recordings were conducted in small-diameter (<25 μm) DRG neurons.
Whole-cell patch-clamp recordings were conducted at room temperature. Patch pipettes pulled from borosilicate capillaries (World Precision Instruments, Inc., Sarasota, FL) were used to record transient Na currents with an Axopatch-200B amplifier with a Digidata 1440A (Axon Instruments, Sunnyvale CA). The resistance was set to 3-4 MΩ when filled with pipette solution. The pipette solution contained (in mmol/L): CsCl 130, NaCl 9, MgCl2 1, EGTA 10, HEPES 10, adjusted to pH 7.3 with CsOH. The external solution for recording transient Na^+ currents contained (in mmol/L): NaCl 131, TEACl 10, CsCl 10, CaCl2) 1, MgCl2 2, CdCl2 0.3, 4-aminopyridine 3, HEPES 10, glucose 10, adjusted to pH 7.4 with NaOH. The recording chamber (300 μL) was continuously superfused at 3-4 mL/min. Series resistance was compensated (>80%) and leak subtraction was performed. Data were low-pass-filtered at 2 kHz and sampled at 10 kHz. pClamp10 (Axon Instruments) software was used during experiments and analysis. In voltage-clamp experiments, transient Na+ currents were evoked by a test pulse to 0 mV from the holding potential (−70 mV).

[2] = tested on: formalin-induced inflammatory pain; assay: Formalin-induced nociceptive behavioral test; assay type: in vivo, mouse; conditions: mice
Protocol: The formalin test was conducted following our previously published protocol (Chen, Ji, et al. 2018; Neurosci Bull; 34: 98-108). The animals were acclimatized in a transparent acrylic observation chamber for 2 days before test. Vehicle or active compound were administered intrathecally, intraperitoneally, or intraplantarly, 30 min later followed by an intraplantar injection of 20 μL of 5% formalin. After the formalin injection, mice were immediately placed back in the observation chamber, and videoed for 40 min. The videos were analyzed after experiments in a double blinded way. We assessed formalin-evoked spontaneous pain by measuring the time (in seconds) mice spent on licking or flinching the affected paw every 5 min for […]. Phase I and Phase II were defined as periods of 0-10 min and 10-40 min, respectively.
For intrathecal injection, spinal cord puncture was made by a Hamilton microsyringe (Hamilton Company, Reno, Nevada) with a 30-G needle between the L5 and L6 level to deliver reagents (5 μL) to the cerebral spinal fluid. For intraperitoneal injection, Vehicle or drug was injected into peritoneal with a 30-G needle. For intraplantar injection, 20 μL vehicle or drug was injected into the surface of the hind paw.

[3] = tested on: paclitaxel-induced mechanical allodynia; assay: Paclitaxel-induced neuropathic pain model (von Frey); assay type: in vivo, mouse; conditions: for effect on paclitaxel-induced mechanical allodynia: mice
Protocol: Intraperitoneal injection of paclitaxel (PTX, 2 mg/kg for multiple injections at day 0, 2, 4, and 6) was given to generate chemotherapy-associated neuropathic pain. Neuropathic pain behavior was tested 3 weeks after PTX injection using a von Frey test. Briefly, animals were habituated to the testing environment daily for at least 2 days before the baseline testing. Animals were confined in boxes placed on an elevated metal mesh floor and the hind paws were stimulated with a series of von Frey hairs with logarithmically increasing stiffness (0.02-2.56 g, Stoelting), presented perpendicularly to the central plantar surface. The 50% paw withdrawal threshold was determined by an up-down method.

[4] = tested on: histamine-induced acute itch; assay: Histamine-induced itch model; assay type: in vivo, mouse; conditions: listed as DA-0218
Protocol: Itch behavior was tested blindly. Mice were habituated to the testing environment daily for at least two days before testing. Animals were shaved at the back of the neck in an area of approximately 15×10 mm on the day before the injection of pruritic agent. Animals were put in small plastic chambers (14×18×12 cm) on an elevated metal mesh floor and allowed 30 min for habituation before examination. Mice were then briefly removed from the chamber and given an intradermal injection (50 μL) of 500 μg of histamine in the nape of the neck. After the injection, mouse behaviors were video-recorded and the number of scratches in every 5 min for 30 min was counted. A scratch was counted when a mouse lifted its hindpaw to scratch the shaved region and returned the paw to the floor or to the mouth.

[5] = tested on: lymphoma-induced chronic itch; assay: Mouse CTCL xenograft model of chronic itch; assay type: in vivo
Protocol: We used a murine xenograft model of cutaneous T cell lymphoma (CTCL) using immune-deficient mice (NOD.CB17-Prkdcscid, 8-10 weeks old, male). CD4+ MyLa cell line was purchased from Sigma (Catalog #95051032). The cell line was established from a plaque biopsy of a person with mycosis fungoides stage II by inclusion of IL-2 and IL-4 in the culture medium. CTCL was generated via intradermal injection of CD4+ Myla cells (1×10^5 cells/μL, 100 μL) on the nape of the neck. Itch behavior was tested on Day 50 after inoculation of CTCL cells.

For O=C(CC(c1cccc(Oc2ccccc2)c1)c1cn(Cc2ccccc2)c2ccccc12)NCCN1CCCC1 (centres unmarked) [Compound 9, 3-(1-benzyl-1H-indol-3-yl)-3-(3-phenoxyphenyl)-N-(2-(pyrrolidin-1-yl)ethyl)propanamide], the “time to peak inhibition after the drug incubation” value ([1]; 10 μM, mouse DRG neurons) was 10 min, the inhibition at 10 µM ([1]; 10 μM, naive (non-treated) mouse DRG neurons, read-out: inhibition of peak INaT (sodium currents)) was 17% and the inhibition at 10 µM ([1]; 10 μM, paclitaxel pretreated mouse DRG neurons, read-out: inhibition of sodium currents) was 44%. The “mean relative current at the last measurement” value ([1]; mouse DRG neurons, naive) was 72 % of the baseline, the “mean relative current at the last measurement” value ([1]; mouse DRG neurons, paclitaxel-treated) was 43 % of the baseline and the “inhibition of formalin-induced pain in Phase II” value ([2]; intraperitoneal 30 mg/kg) was 76%. For the same compound, the “inhibition of formalin-induced pain in Phase II” value ([2]; intraplantar 60 nmol) was “significant inhibition”, the “effect on formalin Phase I response” value ([2]; intrathecal 30 nmol) was “reduced Phase I response” and the “inhibition of formalin-induced second-phase (Phase II) pain” value ([2]; intrathecal (3, 10 and 30 nmol)) was 80%. For the same compound, the “effect on paclitaxel-induced mechanical allodynia” value ([3]; intraperitoneal 30 mg/kg, listed as DA-0218) was “no effect on allodynia; also recorded: did not produce any anti-allodynia effects”, the “effect duration, chronic pain” value ([3]; intrathecal, paclitaxel model) was 3 h and the “effect on paclitaxel-induced mechanical allodynia” value ([3]; intrathecal, single injection, listed as DA-0218) was “acute reduction; also recorded: transiently but completely reversed; also recorded: statistically significant anti-allodynia effects”. For the same compound, the “analgesic effect after repeated intrathecal injections (2nd and 3rd injection)” value ([3]; tested one hour after each injection, paclitaxel model, listed as DA-0218) was “did not produce any analgesic effect; also recorded: induced acute tolerance”, the “effect on histamine-induced scratches” value ([4]; intrathecal 30 nmol, 500 μg histamine intradermal, 30 min) was “statistically significant reduction; also recorded: effective against histamine-induced itch” and the “effect on histamine-induced scratch bouts” value ([4]; intrathecal, dose response) was “inhibited histamine-induced acute itch; also recorded: dose-dependent reduction”. For the same compound, the “effect duration, chronic itch” value ([5]; intrathecal) was > 5 h and the “effect on lymphoma-induced chronic itch (scratch)” value ([5]; intrathecal 30 nmol, Day 50 after CTCL inoculation, listed as DA-0218) was “inhibited; also recorded: significant reduction of scratch; also recorded: effective against lymphoma-induced itch”.
